Experimental data as given in PMC4754331, “Programming of metabolic effects in C57BL/6JxFVB mice by in utero and lactational exposure to perfluorooctanoic acid” (Archives of Toxicology, 2015).
Like-named read-outs stand apart in the source and are kept apart here.

What was measured:
C57BL/6JxFVB hybrid mice [1] = test: Tibia composition/function by pQCT; format: in vivo; details: for Emax: Mus musculus
C57BL/6JxFVB hybrid mice [2] = test: Histopathology of brown adipose tissue; format: in vivo
Method: Some measurements included only control and one or two dose groups and could therefore not be analyzed as dose–responses. GTT was therefore evaluated by repeated-measures or nested (to account for litter covariance) two-way ANOVAs (Graphpad Prism 5.0, R) to detect differences at the different time points and between the areas under the curve (AUC). Activity measurement, ucp1 expression, WAT adipocyte size and the proxy for cell number were also tested with a nested ANOVA (R). Differences in distribution of BAT histopathology scores between experimental groups were tested for statistical significance in a two-tailed Fisher’s exact test.

C57BL/6JxFVB hybrid mice [3] = test: Spontaneous locomotor activity test; format: in vivo; details: males and females; 300 µg/kg vs control; data not shown
Method: One week later, at 20 weeks of age, an insulin tolerance test (ITT) was performed in the same animals as used for the GTT. Mice were not fasted to avoid low glucose baseline levels which, after an insulin injection, could lead to hypoglycemia. At the start of the experiment, a baseline blood sample was taken (0 min). […] The experiment was performed over two morning sessions, with 1.75 h between the first and last tested animal in each session, and animals were treated in a random order. At the age of 22–25 weeks, control and 300 µg/kg bw/d animals were used for a spontaneous locomotor activity test. After an acclimatization period of minimal 6 h, activity of the mice was continuously registered on four parallel platforms for 36 h (males) or 60 h (females), starting at the beginning of the dark phase (6.30 PM) of the first day.
Some measurements included only control and one or two dose groups and could therefore not be analyzed as dose–responses. GTT was therefore evaluated by repeated-measures or nested (to account for litter covariance) two-way ANOVAs (Graphpad Prism 5.0, R) to detect differences at the different time points and between the areas under the curve (AUC). Activity measurement, ucp1 expression, WAT adipocyte size and the proxy for cell number were also tested with a nested ANOVA (R). […]

[4] = tested on: mice (CD-1, NMRI, Balb/c, C57BL/6); parameters: key to Time of effect: P: permanent effect on body weight throughout study; D: delayed (late onset) of effect; T: transient effect; E: effect observed during treatment; details: cited from earlier work
[5] = females, 300 and 3000 combined, p = 0.097 vs control
[6] = males, 300 and 3000 combined, p < 0.05 vs control
[7] = Balb/c and C57BL/6, 1000-5000-10,000 µg/kg bw/d, oral gavage PND21-49 (5d/w), ref Yang et al. ([2009])
[8] = Balb/c, C57BL/6, 2500 (Balb), 7500 (BL6) µg/kg bw/d, oral gavage PND21-49 (5d/w), ref Zhao et al. ([2012])
[9] = CD-1, 5000 µg/kg bw/d, oral gavage GD1-17, GD8-17, GD12-17, ref White et al. ([2007])
[10] = CD-1, 10-100-1000 µg/kg bw/d, oral gavage GD10-17, ref Macon et al. ([2011])
[11] = CD-1, 10-100-1000 µg/kg bw/d, oral gavage PND18-20, ref Dixon et al. ([2012])
[12] = CD-1, 10–5000 µg/kg bw/d, oral gavage GD1-17, ref Hines et al. ([2009])
[13] = CD-1, 300-1000-3000 µg/kg bw/d, oral gavage GD1-17, ref Macon et al. ([2011])
[14] = CD-1, 1000, 3000, 5000, 10,000, 20,000, 40,000 µg/kg bw/d, oral gavage GD1-17, ref Lau et al. ([2006])
[15] = CD-1, 1000, 5000, 0/1000 + 5 ng/mL via drinking water, GD1-17, ref White et al. ([2011b])
[16] = CD-1, 1000–40,000 µg/kg bw/d, oral gavage GD1-17, ref Lau et al. ([2006])
[17] = CD-1, 3000, 5000 µg/kg bw/d, oral gavage GD1-17, ref White et al. ([2009])
[18] = CD-1, dose 3 [sic], 5 µg/kg bw/d, oral gavage GD1-17, ref Wolf et al. ([2007])
[19] = NMRI, 580-8,700 µg/kg bw/d, oral gavage PND10, ref Johansson et al. ([2008])

O=C(O)C(F)(F)C(F)(F)C(F)(F)C(F)(F)C(F)(F)C(F)(F)C(F)(F)F [PFOA, Perfluorooctanoic acid]
Tibia ability to resist torsion: BMDL (C57BL/6JxFVB hybrid mice [1]; F1 females, CES 5 %): 917 µg/kg bw/d | Tibia ability to resist torsion: BMDU (C57BL/6JxFVB hybrid mice [1]; F1 females, CES 5 %): 10,316 µg/kg bw/d | Tibia bending strength: BMDL (C57BL/6JxFVB hybrid mice [1]; F1 females, CES 5 %): 888 µg/kg bw/d | Tibia bending strength: BMDU (C57BL/6JxFVB hybrid mice [1]; F1 females, CES 5 %): 3371 µg/kg bw/d | Tibia cortical density: BMDL (C57BL/6JxFVB hybrid mice [1]; F1 females, CES 5 %): 2866 µg/kg bw/d | Tibia cortical density: BMDU (C57BL/6JxFVB hybrid mice [1]; F1 females, CES 5 %): 6949 µg/kg bw/d | Tibia trabecular area: BMDL (C57BL/6JxFVB hybrid mice [1]; F1 females, CES 5 %): 914 µg/kg bw/d | Tibia trabecular area: BMDU (C57BL/6JxFVB hybrid mice [1]; F1 females, CES 5 %): 3037 µg/kg bw/d | Tibia cortical density: BMDL (C57BL/6JxFVB hybrid mice [1]; F1 males, CES 5 %): 2635 µg/kg bw/d | Tibia cortical density: BMDU (C57BL/6JxFVB hybrid mice [1]; F1 males, CES 5 %): 27,520 µg/kg bw/d | Emax (C57BL/6JxFVB hybrid mice [1]; F1 females, read-out: Tibia ability to resist torsion: max effect size): -8.3% | Emax (C57BL/6JxFVB hybrid mice [1]; F1 females, read-out: Tibia bending strength: max effect size): -9.9% | Emax (C57BL/6JxFVB hybrid mice [1]; F1 females, read-out: Tibia cortical density: max effect size): -3.7% | Emax (C57BL/6JxFVB hybrid mice [1]; F1 females, read-out: Tibia trabecular area: max effect size): -10% | Emax (C57BL/6JxFVB hybrid mice [1]; F1 males, read-out: Tibia cortical density: max effect size): -3.4% | Brown adipose tissue (interscapular fat pad) histopathology (C57BL/6JxFVB hybrid mice [2]; females vs control females, p = 0.097): trend for lipid depletion | Brown adipose tissue lipid accumulation: count of individuals with Grade 3 (C57BL/6JxFVB hybrid mice [2]; [5]): 4 | Brown adipose tissue lipid accumulation: count of individuals with Grades 1, 2 (C57BL/6JxFVB hybrid mice [2]; [5]): 14 | Brown adipose tissue (interscapular fat pad) histopathology (C57BL/6JxFVB hybrid mice [2]; males vs control males): significant lipid accumulation | Brown adipose tissue lipid accumulation: count of individuals with Grades 1, 2, 3 (C57BL/6JxFVB hybrid mice [2]; [6]): 4 | Brown adipose tissue lipid accumulation: count of individuals with Grades 4, 5, 6 (C57BL/6JxFVB hybrid mice [2]; [6]): 13 | Energy expenditure: physical activity (C57BL/6JxFVB hybrid mice [3]): did not show an effect | Endpoint bw (age) F [4, 7]: ↓ PND45-46 | Other relevant effects of PFOA [4, 7]: PND49: delayed vaginal opening; ↑ abs/rel liver weight; inhibition mammary gland/uterine development | Time of effect [4, 7]: E | Endpoint bw (age) F [4, 8]: ↓ PND42-49 (BL6) | Other relevant effects of PFOA [4, 8]: delayed/absent vaginal opening; lack of estrous cycling; ↓ovarian steroid hormonal synthetic enzyme levels | Time of effect [4, 8]: E | Other relevant effects of PFOA ([4]; C57BL/6/Bkl, 300 µg/kg bw/d, diet GD1-PND0, ref Onishchenko et al. ([2011])): M + F: changes in exploratory behavior; M: ↑ activity | Other relevant effects of PFOA ([4]; C57BL/6, 5000 µg/kg bw/d, oral gavage PND21-49 (5d/w), ref Zhao et al. ([2010])): ↑ serum progesterone; ↑ mammary gland response to estrogen and/or progesterone | Time of effect ([4]; CD-1, 5000 µg/kg bw/d, oral gavage GD1-17, GD8-17, GD12-17, no follow-up of animals, ref White et al. ([2007])): P^c | Endpoint bw (age) F [4, 9]: ↓ PND1-20 | Endpoint bw (age) M [4, 9]: ↓ PND1-20 | Other relevant effects of PFOA [4, 9]: altered mammary gland development in dams + female pups | Endpoint bw (age) F [4, 10]: – PND1-21 | Endpoint bw (age) M [4, 10]: – PND1-21 | Other relevant effects of PFOA [4, 10]: M + F: hepatomegaly; F: mammary gland developmental abnormalities | Endpoint bw (age) F [4, 11]: – PND21 | Other relevant effects of PFOA [4, 11]: PND21: ↑ abs/rel uterine weight (lowest dose) | Endpoint bw (age) F ([4]; CD-1, 10, 100, 300, 1000, 3000, 5000 µg/kg bw/d, oral gavage GD1-17, ref Hines et al. ([2009])): ↓ PND1,21 (high doses); ↑ 20-40w (low doses) | Other relevant effects of PFOA [4, 12]: 21–33w: ↑ insulin; ↑ leptin (low doses); 18 m, weights abs/rel: ↓ abdominal white fat (high doses); ↑ interscapular fat (high doses); – liver | Time of effect [4, 12]: D T | Endpoint bw (age) F [4, 13]: – PND7-85 | Endpoint bw (age) M [4, 13]: – PND7-85 | Other relevant effects of PFOA [4, 13]: M + F: delayed mammary gland development | Endpoint bw (age) F [4, 14]: ↓ PND1-25; – 6.5w-60w | Endpoint bw (age) M [4, 14]: ↓ PND1-25; – 6.5w-60w | Other relevant effects of PFOA [4, 15]: delay in mammary gland development and/or lactational differentiation (P0, F1, F2) | Time of effect [4, 15]: T | Endpoint bw (age) F ([4]; CD-1, 1000, 5000, 0/1000 + 5 ng/mL via drinking water, oral gavage GD1-17, GD1-end of study (5 ng/mL groups), ref White et al. ([2011b])): ↓ PND42 (F1); ↑ PND14-22 (F2) | Other relevant effects of PFOA [4, 16]: M: earlier preputial separation | Time of effect [4, 16]: T | Endpoint bw (age) F [4, 17]: ↓ PND21-85 | Other relevant effects of PFOA [4, 17]: weaning age: abnormal (delay) mammary gland development; ↑ rel liver weight | Time of effect [4, 17]: T | Endpoint bw (age) M ([4]; CD-1, 3000, 5000 µg/kg bw/d, oral gavage GD1-17, ref Wolf et al. ([2007])): ↓ PND1-22; ↑ PND85 - 35w (dose 3000) | Endpoint bw (age) F [4, 18]: ↓ PND1-22 | Other relevant effects of PFOA [4, 18]: M + F, PND22: ↑ abs/rel liver weight | Time of effect [4, 18]: T; D (dose 3000) | Endpoint bw (age) M [4, 19]: – PND10 + 28 | Other relevant effects of PFOA [4, 19]: 8/16w: neurotoxicity | Most sensitive developmental BMDL ([4]; ref Lau et al. [2006]): 616 µg/kg bw/d
